# Assay results published in US20250223284A1, “REVERSIBLE DPP1 INHIBITORS AND USES THEREOF” (Insmed Incorporated, priority 2023, published 2025).
# Molecular target: human DPP1 enzyme (Homo sapiens (Human), UniProt P53634)
# Test: Human DPP1 Enzyme IC50 Assay
# Type: biochemical
# Conditions: recombinant human DPP1 activated with cathepsin L, H-Gly-Arg-AMC substrate, 10 min pre-incubation at 37° C., MES pH 6.0
# Protocol: Recombinant human DPP1 enzyme (R&D Systems; Minneapolis, MN) was first proteolytically processed into its mature form using recombinant human cathepsin L (R&D Systems) in a buffer consisting of 20 mM citric acid pH 4.5, 150 mM NaCl, 1 mM EDTA and 10 mM DTT. Test articles were applied to activated human DPP1 enzyme in Assay Buffer (25 mM MES pH 6.0, 50 mM NaCl, 5 mM DTT) in a total reaction volume of 125 μL. 25 μL of compound in Assay Buffer plus 5% DMSO was first added to 50 μL of activated human DPP1 enzyme at a concentration of 1 ng/μL and allowed to pre-incubate for 10 minutes at 37° C. after which 50 μL of 1000 μM H-Gly-Arg-AMC substrate (Bachem; St. Torrance, CA) was added, giving final substrate concentration of 400 µM and a final DMSO concentration of 1%. Substrate cleavage was measured for 90 minutes at 37° C., with fluorescence at Excitation/Emission 350/450 nm measured every 5 minutes. DPP1 concentration was interpolated based on its activity relative to a standard curve of activated human recombinant DPP1 enzyme. IC50 values for each compound were calculated via the XLFit (IDBS Version 5.3.1.3) Add-On to Microsoft Excel using the four parameter fit equation y={A+[(B−A)]/[1+((C/x)^D)]}, which appears as equation number 205 (4 Parameter Logistic Model or Sigmoidal Dose-Response Model) in XLFit. Default constraints were used for each Parameter. IC50 was defined as the compound concentration at which 50% of enzyme activity was inhibited when compared to the no-compound control.
# Sequence of human DPP1 enzyme (P53634 25-134): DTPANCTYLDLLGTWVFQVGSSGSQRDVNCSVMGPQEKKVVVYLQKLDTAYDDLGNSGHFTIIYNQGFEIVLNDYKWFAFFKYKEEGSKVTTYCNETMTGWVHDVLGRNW
# Sequence of human DPP1 enzyme (P53634 231-394): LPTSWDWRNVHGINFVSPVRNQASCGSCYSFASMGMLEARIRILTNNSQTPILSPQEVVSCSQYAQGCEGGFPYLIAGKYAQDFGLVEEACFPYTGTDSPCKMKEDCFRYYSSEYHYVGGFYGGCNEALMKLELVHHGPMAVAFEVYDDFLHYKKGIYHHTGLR
# Sequence of human DPP1 enzyme (P53634 395-463): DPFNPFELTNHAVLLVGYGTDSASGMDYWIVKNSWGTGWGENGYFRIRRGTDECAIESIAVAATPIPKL
row,IC50,SMILES
1,1020 nM,"C=CCC1(O)CNC[C@@H](C(=O)N[C@H](C#N)Cc2ccc(-c3ccc4oc(=O)n(C)c4c3)cc2)OC1 (single isomer, unassigned)"
2,15.8 ± 6.8 nM,"Cn1c(=O)oc2ccc(-c3ccc(C[C@@H](C#N)NC(=O)C4CCCCCNC4)c(F)c3)cc21 (single isomer, unassigned) [drawing 548]"
3,4.2 ± 0.8 nM,"Cn1c(=O)oc2ccc(-c3ccc(C[C@@H](C#N)NC(=O)[C@@H]4CNCC5(CCO5)CO4)cc3)cc21 (single isomer, unassigned) [drawing 530]"
4,140 ± 59.3 nM,"Cn1c(=O)oc2ccc(-c3ccc(C[C@@H](C#N)NC(=O)[C@H]4CCCCCNC4)c(F)c3)cc21 (single isomer, unassigned) [drawing 549]"
5,95.9 ± 4.4 nM,"Cn1c(=O)oc2ccc(-c3ccc(C[C@@H](C#N)NC(=O)[C@@H]4CNCC5(CCCO5)CO4)cc3)cc21 (single isomer, unassigned)"
6,74.7 nM,"CO[C@H]1CCNC[C@@H](C(=O)N[C@H](C#N)Cc2ccc(-c3ccc4oc(=O)n(C)c4c3)cc2)OC1 (single isomer, unassigned) [drawing 547]"
7,85.6 ± 19.5 nM,Cn1c(=O)oc2ccc(-c3ccc(C[C@@H](C#N)NC(=O)C4CCCCCNC4)cc3)cc21 (stereo partly shown) [drawing 511]
8,22.3 ± 2 nM,"Cn1c(=O)oc2ccc(-c3ccc(C[C@@H](C#N)NC(=O)[C@@H]4CNCCCCO4)cc3)cc21 (single isomer, unassigned) [drawing 535]"
9,49.8 nM,Cn1c(=O)oc2ccc(-c3ccc(C[C@@H](C#N)NC(=O)[C@H]4CCCCCNC4)cc3)cc21
10,3750 nM,"Cn1c(=O)oc2ccc(-c3ccc(C[C@@H](C#N)NC(=O)[C@@H]4CNCC(O)(C(F)(F)F)CO4)cc3)cc21 (single isomer, unassigned)"
11,234 nM,"Cn1c(=O)oc2ccc(-c3ccc(C[C@@H](C#N)NC(=O)[C@@H]4CNC[C@@](O)(CO)CO4)cc3)cc21 (single isomer, unassigned)"
12,603 nM,Cn1c(=O)oc2ccc(-c3ccc(C[C@@H](C#N)NC(=O)[C@@H]4CCCCCNC4)cc3)cc21 [drawing 550]
13,> 5000 nM,"CC(C)CO[C@@]1(C)CNC[C@@H](C(=O)N[C@H](C#N)Cc2ccc(-c3ccc4oc(=O)n(C)c4c3)cc2)OC1 (single isomer, unassigned)"
14,2240 nM,"Cn1c(=O)oc2ccc(-c3ccc(C[C@@H](C#N)NC(=O)[C@@H]4CNCCC(C)(O)CO4)cc3)cc21 (single isomer, unassigned)"
15,> 5000 nM,"CCC[C@]1(O)CNC[C@@H](C(=O)N[C@H](C#N)Cc2ccc(-c3ccc4oc(=O)n(C)c4c3)cc2)OC1 (single isomer, unassigned)"
16,30.9 ± 2 nM,"CN1CC2(C1)OC(=O)c1ccc(-c3ccc(C[C@@H](C#N)NC(=O)[C@@H]4CNCCCCO4)cc3)cc12 (single isomer, unassigned) [drawing 536]"
17,457 nM,"CCO[C@H]1CCNC[C@@H](C(=O)N[C@H](C#N)Cc2ccc(-c3ccc4oc(=O)n(C)c4c3)cc2)OC1 (single isomer, unassigned)"
18,1470 nM,"C=C[C@]1(O)CNC[C@@H](C(=O)N[C@H](C#N)Cc2ccc(-c3ccc4oc(=O)n(C)c4c3)cc2)OC1 (single isomer, unassigned)"
19,25.1 ± 3.1 nM,"Cn1c(=O)oc2ccc(-c3ccc(C[C@@H](C#N)NC(=O)[C@@H]4CNCCCCO4)cc3)cc21 (single isomer, unassigned) [drawing 513]"
20,243 nM,"Cn1c(=O)oc2ccc(-c3ccc(C[C@@H](C#N)NC(=O)[C@@H]4CNC[C@@](C)(O)CCO4)cc3)cc21 (single isomer, unassigned)"
21,1140 nM,"CO[C@H]1CCO[C@H](C(=O)N[C@H](C#N)Cc2ccc(-c3ccc4oc(=O)n(C)c4c3)cc2)CNC1 (single isomer, unassigned)"
22,3.04 ± 0.8 nM,"Cn1c(=O)oc2ccc(-c3ccc(C[C@@H](C#N)NC(=O)[C@@H]4CNC[C@@]5(CCO5)CO4)cc3)cc21 (single isomer, unassigned) [drawing 532]"
23,14.1 ± 3 nM,"Cn1c(=O)oc2ccc(-c3ccc(C[C@@H](C#N)NC(=O)[C@@H]4CNC[C@@](C)(O)CO4)c(F)c3)cc21 (single isomer, unassigned)"

row,IC50,SMILES
1,> 5000 nM,"Cn1c(=O)oc2ccc(-c3ccc(C[C@@H](C#N)NC(=O)[C@@H]4CNCC(O)(Cc5ccccn5)CO4)cc3)cc21 (single isomer, unassigned)"
2,72.6 nM,Cn1c(=O)oc2ccc(-c3ccc(C[C@@H](C#N)NC(=O)C4CCCCCNC4)cc3)cc21 (stereo partly shown) [I-A]
3,314 ± 201 nM,"Cn1c(=O)oc2ccc(-c3ccc(C[C@@H](C#N)NC(=O)[C@@H]4CNC[C@](C)(O)CO4)cc3)cc21 (single isomer, unassigned) [drawing 514]"
4,> 5000 nM,"CCO[C@@]1(C)CNC[C@@H](C(=O)N[C@H](C#N)Cc2ccc(-c3ccc4oc(=O)n(C)c4c3)cc2)OC1 (single isomer, unassigned) [drawing 551]"
5,27 nM,"CCO[C@@H]1CCO[C@H](C(=O)N[C@H](C#N)Cc2ccc(-c3ccc4oc(=O)n(C)c4c3)cc2)CNC1 (single isomer, unassigned)"
6,61.3 ± 9.9 nM,Cn1c(=O)oc2ccc(-c3ccc(C[C@@H](C#N)NC(=O)C4CCCCCNC4)cc3)cc21 (stereo partly shown) [drawing 512]
7,2740 nM,"CC[C@]1(O)CNC[C@@H](C(=O)N[C@H](C#N)Cc2ccc(-c3ccc4oc(=O)n(C)c4c3)cc2)OC1 (single isomer, unassigned) [drawing 519]"
8,1680 nM,"CCO[C@]1(C)CNC[C@@H](C(=O)N[C@H](C#N)Cc2ccc(-c3ccc4oc(=O)n(C)c4c3)cc2)OC1 (single isomer, unassigned) [drawing 552]"
9,17.4 ± 6 nM,"CO[C@H]1CCNC[C@@H](C(=O)N[C@H](C#N)Cc2ccc(-c3ccc4oc(=O)n(C)c4c3)cc2)OC1 (single isomer, unassigned) [drawing 554]"
10,4.91 ± 0.9 nM,"CCO[C@@H]1CCNC[C@@H](C(=O)N[C@H](C#N)Cc2ccc(-c3ccc4oc(=O)n(C)c4c3)cc2)OC1 (single isomer, unassigned) [drawing 544]"
11,67.4 nM,"Cn1c(=O)oc2ccc(-c3ccc(C[C@@H](C#N)NC(=O)[C@@H]4CNCC[C@H](O)CO4)cc3)cc21 (single isomer, unassigned)"
12,> 5000 nM,"CC(C)[C@]1(O)CNC[C@@H](C(=O)N[C@H](C#N)Cc2ccc(-c3ccc4oc(=O)n(C)c4c3)cc2)OC1 (single isomer, unassigned) [drawing 520]"
13,230 nM,"Cn1c(=O)oc2ccc(-c3ccc(C[C@@H](C#N)NC(=O)C4CCCC(O)CNC4)cc3)cc21 (single isomer, unassigned)"
14,> 5000 nM,"CC(C)CO[C@]1(C)CNC[C@@H](C(=O)N[C@H](C#N)Cc2ccc(-c3ccc4oc(=O)n(C)c4c3)cc2)OC1 (single isomer, unassigned)"
15,25.1 nM,"CC[C@@]1(O)CNC[C@@H](C(=O)N[C@H](C#N)Cc2ccc(-c3ccc4oc(=O)n(C)c4c3)cc2)OC1 (single isomer, unassigned) [drawing 518]"
16,23.2 ± 2 nM,"Cn1c(=O)oc2ccc(-c3ccc(C[C@@H](C#N)NC(=O)[C@@H]4CNC[C@](C)(O)CCO4)cc3)cc21 (single isomer, unassigned)"
17,13.6 ± 2.1 nM,"Cn1c(=O)oc2ccc(-c3ccc(C[C@@H](C#N)NC(=O)[C@@H]4CNC[C@](C)(O)CO4)c(F)c3)cc21 (single isomer, unassigned)"
18,198 nM,"Cn1c(=O)oc2ccc(-c3ccc(C[C@@H](C#N)NC(=O)[C@@H]4CNC[C@@H](O)CCO4)cc3)cc21 (single isomer, unassigned)"
19,> 5000 nM,"CCO[C@H]1CCO[C@H](C(=O)N[C@H](C#N)Cc2ccc(-c3ccc4oc(=O)n(C)c4c3)cc2)CNC1 (single isomer, unassigned)"
20,729 nM,"Cn1c(=O)oc2ccc(-c3ccc(C[C@@H](C#N)NC(=O)[C@@H]4CNC[C@]5(CCO5)CO4)cc3)cc21 (single isomer, unassigned)"
21,781 nM,"Cn1c(=O)oc2ccc(-c3ccc(C[C@@H](C#N)NC(=O)[C@@H]4CNC[C@](O)(CO)CO4)cc3)cc21 (single isomer, unassigned)"
22,6.82 ± 0.5 nM,"CO[C@@H]1CCO[C@H](C(=O)N[C@H](C#N)Cc2ccc(-c3ccc4oc(=O)n(C)c4c3)cc2)CNC1 (single isomer, unassigned) [drawing 553]"
23,769 nM,"CCC[C@@]1(O)CNC[C@@H](C(=O)N[C@H](C#N)Cc2ccc(-c3ccc4oc(=O)n(C)c4c3)cc2)OC1 (single isomer, unassigned)"
